Earlier results on one molecule are cited in patent publication US20090214599A1, “PROTON PUMP INHIBITOR FORMULATIONS, AND METHODS OF PREPARING AND USING SUCH FORMULATIONS” (AGI THERAPEUTICS PLC, priority 2008, published 2009).

The conditions of data set [1]: pH <4.
For data set [2] the following is noted: healthy subjects.

For `COc1ccc2[nH]c([S+]([O-])Cc3ncc(C)c(OC)c3C)nc2c1` (stereo not drawn) [omeprazole], the Protein binding entry is “approximately 95%”. The “half-life of degradation in acid conditions” value in data set [1] was about 10 min. Besides, the total body clearance in data set [2] is 500 to 600 mL/min.
